Assay [1] addresses T1, recombinant human RHBDL4 (Homo sapiens, UniProt Q8TEB9).
T1 construct: The entire RHBDL4 and RHBDL4-S144A cDNAs were subcloned into the pcDNA3.1 vector; 6xHis (C, cleaved yes); made in house; host or cells: Freestyle 293-F cells (transient transfection, pcDNA3.1-HisA)
T1 sequence (Q8TEB9 1-315): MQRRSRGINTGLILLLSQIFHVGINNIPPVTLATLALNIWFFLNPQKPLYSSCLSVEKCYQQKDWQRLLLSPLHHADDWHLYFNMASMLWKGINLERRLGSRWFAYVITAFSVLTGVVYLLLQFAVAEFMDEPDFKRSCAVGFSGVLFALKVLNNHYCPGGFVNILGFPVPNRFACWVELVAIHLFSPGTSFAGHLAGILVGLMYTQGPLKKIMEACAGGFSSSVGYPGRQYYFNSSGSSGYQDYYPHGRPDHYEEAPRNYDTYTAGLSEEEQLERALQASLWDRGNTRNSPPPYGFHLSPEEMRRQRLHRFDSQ
Nature of the assay: Inhibition of RHBDL4 proteolysis of IQ6 (FRET-based in vitro assay). It counts as biochemical. The note with it: IQ6 substrate; for inhibition of RHBDL4 proteolytic activity: increasing concentrations, 1 h pre-incubation, 2 h reaction, n = 3. The text has this:
(§1) B, schematic representation of the peptidyl-α-ketoamide scaffold with peptide sequence P5-P1 at the nonprime side and hydrophobic substituent (R) at the prime side. C, schematic representation of the peptidyl-α-ketoamide inhibitor, compound 1a/1b. D, representative inhibition curve derived from measuring rates of RHBDL4 proteolysis of the fluorescent substrate IQ6 with increasing concentrations of compound 1a. E, same as (D), except inhibition curve was derived from using increasing concentrations of compound 1b. […] Reactions were quenched with 1 keLaemmli buffer and loaded on 12% SDS-PAGE gel. Post-transfer membranes were visualized using a fluorescence Cy3 filter and by Western blotting using an α-His antibody. For (A, D, and E), all inhibitors were pre-incubated with RHBDL4 for 1 h and allowed to react with the IQ6 substrate for 2 h.
(§2) B, representative inhibition curve derived from measuring rates of RHBDL4 proteolysis of the fluorescent substrate IQ6 with increasing concentrations of compound 3. C, same as (B), except inhibition curve was derived from using increasing concentrations of compound 4. […] Reactions were quenched with 1 RLaemmli buffer and loaded on 12% SDS-PAGE gel. Post-transfer membranes were visualized using a fluorescence Cy3 filter and by Western blotting using an α-His antibody. E, saturation curve of RHBDL4 using fluorescent substrate, KSp207. For (B and C), all inhibitors were pre-incubated with RHBDL4 for 1 h and allowed to react with the IQ6 substrate for 2 h. […] I assigned them to the substrate KSp207, which is named on the x-axis and in the inset table.
(§3) The enzymatic assay was performed as previously described (Arutyunova et al., 2014, ([26])). […] The FRET-based cleavage assay was conducted in a fluorescence multiwell plate reader (SynergyMx, BioTek). Upon excitation at 320 nm, the emission intensity at 400 nm was recorded for 2 h at minimal intervals under shaking conditions and plotted using the GraphPad PRISM software. The initial velocities were defined as the slopes of the curve of the generated product as a function of time. The plots of the generated product against the corresponding substrate concentration were fitted with the Michaelis–Menten equation. Catalytic parameters were extrapolated using GraphPad PRISM. […] The samples were desalted using C18 tips (Rainin), eluted in 80% acetonitrile, and dried down in a vacuum centrifuge prior to mass spectrometry analysis.

Another assay has as its system RHBDL4-S144A. Nature of the assay: FRET-based cleavage by inactive RHBDL4-S144A. The class given is biochemical, human. As to conditions: pH 8, 37 °C. From the text:
(§4) The reaction setup in our FRET assay enabled the direct determination of Michaelis–Menten kinetic parameters Km and kcat for the cleavage of IQ6, IQ41, and IQ46 by RHBDL4. Our fluorescence reading data were converted to μM/h using the standard calibration curve for all three IQ substrates, and the correction factor for the inner filter effect was applied. We confirmed that purified RHBDL4 followed Michaelis–Menten kinetics with KmIQ6=10.73±2μΜ , KmIQ41=5.63±2μΜ , and KmIQ46=7.19±1μΜ and kcatIQ6=7.33±0.6h^−1 , kcatIQ41=2.41±0.6h^−1 , and kcatIQ46=3.62±0.08h^−1 (Figs. 2B and S2B).
Figure 3 Dependence of conserved rhomboid motifs on RHBDL4 protease activity.A, RHBDL4 representation highlighting TM1–6 (in green), the VBM- and UIM-binding motifs (in blue), the conserved rhomboid motifs (WR and Gx3G), and the serine-histidine catalytic dyad (in pink). The table indicates the RHBDL4 region, the conserved rhomboid motifs, and amino acid mutation. The RHBDL4 proteolytic activity. B, size-exclusion chromatography profile of RHBDL4-AR and RHBDL4-Ax3G, being eluted as a monomeric protein. C, coomassie staining and Western blotting using an α-His antibody of concentrated purified RHBDL4-AR and RHBDL4-Ax3G. D, activity profiles of the WT RHBDL4 and mutant RHBDL4-S144A, RHBDL4-AR, and RHBDL4-Ax3G proteins, as measured by cleavage of the fluorescent substrate IQ6. Assay was performed in triplicate (n = 3), and data points are represented by the average ± S.E.M. Statistically significant differences compared to WT RHBDL4 are indicated (pairwise Dunnett's test followed by Bonferroni's post hoc analysis; ∗p < 0.05, n.s., no significance).
The enzymatic assay was performed as previously described (Arutyunova et al., 2014, ([26])). […] The FRET-based cleavage assay was conducted in a fluorescence multiwell plate reader (SynergyMx, BioTek). Upon excitation at 320 nm, the emission intensity at 400 nm was recorded for 2 h at minimal intervals under shaking conditions and plotted using the GraphPad PRISM software. […]

Assay [2] concerns the target T1, recombinant human RHBDL4. Nature of the assay: FRET-based cleavage assay with fluorescent (IQ / KSp207) substrates. It counts as biochemical. The note with it: for kcat / pH of highest RHBDL4 protease activity / salt concentration range with satisfactory activity: triplicate; for kcat: average ± S.E.M.; for pH of highest RHBDL4 protease activity: pH range 5 to 10; for salt concentration range with satisfactory activity: salt tested 100 to 300 mM. The method, then:
Figure 2 Kinetic characterization of recombinant human RHBDL4.A, schematic representation of the FRET-based cleavage assay using internally quenched (IQ) substrates. B, saturation curves of RHBDL4 using the fluorescent IQ substrates, IQ6, IQ41, and IQ46. C, pH dependence of the RHBDL4 protease activity using substrates IQ6, IQ41, and IQ46. D, salt concentration dependence of the RHBDL4 protease activity using substrates IQ6, IQ41, and IQ46. All the assays were performed in triplicate, and data points are represented by the average ± S.E.M. TEXT PRINTED IN THE PICTURE: (B) IQ 6: KM(μM) 10.73±2; Kcat(hr^-1) 7.33±0.6 | (B) IQ 41: KM(μM) 5.63±2; Kcat(hr^-1) 2.41±0.6 | (B) IQ 46: KM(μM) 7.19±1; Kcat(hr^-1) 3.62±0.8
as §4
Our FRET-based assay is a suitable platform for optimizing conditions that enhance RHBDL4 protease activity. To this end, we selected the optimal pH for RHBDL4 protease activity and performed FRET-based assays with IQ6, IQ41, and IQ46 at a pH range of 5 to 10. […] The optimal salt concentration for the RHBDL4 protease activity was also tested in the range of 100 to 300 mM (Fig. 2D). We conclude that with the IQ6, IQ41, and IQ46 substrates, RHBDL4 had satisfactory activity in a salt concentration range of 100 to 300 mM.
as §2, with “Figure 5 In vitro inhibition of RHBDL4 activity with TMED7-derived peptidyl α-ketoamides.A, schematic representation of the peptidyl-α-ketoamide inhibitor, compound 3 and 4. B,” for “B,”
as §3
All the calculations for Km, Vmax, and Kcat for RHBDL4 and its mutants were performed using GraphPad PRISM.

Assay [3] addresses T2, WT RHBDL4 (human rhomboid protease RHBDL4, recombinant) (human) (UniProt Q8TEB9).
T2 sequence: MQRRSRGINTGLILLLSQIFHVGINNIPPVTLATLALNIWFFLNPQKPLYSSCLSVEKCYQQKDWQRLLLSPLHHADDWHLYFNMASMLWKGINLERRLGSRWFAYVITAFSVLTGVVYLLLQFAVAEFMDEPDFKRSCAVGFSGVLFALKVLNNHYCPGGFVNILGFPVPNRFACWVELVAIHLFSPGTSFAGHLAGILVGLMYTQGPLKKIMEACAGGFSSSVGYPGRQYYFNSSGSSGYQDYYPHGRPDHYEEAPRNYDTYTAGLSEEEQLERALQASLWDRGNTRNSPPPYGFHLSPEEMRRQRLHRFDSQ

The subject of assay [4] is WT RHBDL4 (recombinant, purified). Nature of the assay: TAMRA-FP competition labelling on recombinant RHBDL4. As to conditions: in-gel Cy3 fluorescence, compared with inactive RHBDL4-S144A control. The class given is binding, human.
Source text: as §1, §2

Where [5] appears, read: Michaelis-Menten, 1.5 μM RHBDL4, 37 °C, 2 h, pH 8.0, 150 mM NaCl, 0.1% DDM.

*1 amine or outer side, *2 acyl side, *3 side chain or, on linkers, in order; H or OH if unused. Where a SMILES comes first, the peptide text is derived from it. [ ]: non-standard residue; d: D form. The star is where a group is joined. NH(4-phenylbutyl) = c1ccc(CCCCN*)cc1; X1 = C[C@H](N[*:1])C(=O)C(=O)[*:2]

Turning to `O=c1oc(Cl)c(Cl)c2ccccc12` [3,4-dichloroisocoumarin], at recombinant human RHBDL4 [1], the “inhibition of RHBDL4 proteolytic activity” value is on record as “inhibited the RHBDL4 proteolytic activity only at higher concentrations (100 μM)”. In the case of “mca-FLVRGK(dnp) [IQ46, fluorescent internally quenched substrate mca-FLVRGK(dnp)]”, in the assay with RHBDL4-S144A, the “cleavage by inactive RHBDL4-S144A (increase in fluorescence / activity)” value was “negligible increase in fluorescence”. Further, the turnover number (kcat) (commonly the maximal rate divided by the concentration of active sites) on recombinant human RHBDL4 [2] (37 °C, pH 8.0) turned out to be 0.00101 ± 0.00022 s⁻¹. The kcat on recombinant human RHBDL4 [2] (setting [5]) is 0.00101 ± 2.2e-05 s⁻¹. Further, on recombinant human RHBDL4 [2], the “pH of highest RHBDL4 protease activity” value is reported as 8 and the “salt concentration range with satisfactory activity” value was 100 to 300 mM. On to “compound 1b (peptidyl α-ketoamide, Ac-VRHA-CONH-CH(Bn)-CH2OBn) (peptide)”, for which the IC50 of inhibition of RHBDL4 proteolysis of the fluorescent substrate IQ6 (in vitro FRET-based activity assay; 1 h pre-incubation, 2 h reaction) in assay [3] amounted to 6.1 µM.

For `CC(=O)N1CCC[C@H]1C(=O)NCC(=O)N[C@@H](Cc1ccccc1)C(=O)N[C@@H](CO)C(=O)N[C@@H](C)C(=O)C(=O)NCCCCc1ccccc1` [compound 2] (Ac-PGFS[X1]-{NH(4-phenylbutyl)}), the IC50 (as a rule, the point on the concentration scale where inhibition reaches its midpoint) at recombinant human RHBDL4 [1] (inhibitor pre-incubated with RHBDL4 for 1 h, then reacted with IQ6 for 2 h, n = 3, average ± S.E.M.) was 3.4 ± 1.2 µM. Turning to “Ac-QMESA-4mc [KSp207, TMED7-derived fluorescent substrate Ac-QMESA-4mc]”, the “cleavage rate/efficiency relative to other substrates” value on recombinant human RHBDL4 [2] (FRET-based assay) is “higher enzymatic cleavage efficiency than IQ6”. Also, the kcat at recombinant human RHBDL4 [2] (setting [5]) worked out at 0.003069 ± 0.00022 s⁻¹. The “catalytic rate (cleavage rate)” value at recombinant human RHBDL4 [2] (approximate, discussion) was approximately 11 h⁻¹. On to “compound 1a (peptidyl α-ketoamide, Ac-VRHA-CONH-CH(Bn)-CH2OBn) (peptide)”, for which the IC50 of inhibition of RHBDL4 proteolysis of the fluorescent substrate IQ6 (in vitro FRET-based activity assay; 1 h pre-incubation, 2 h reaction) in assay [3] was found to be 2.31 µM.

Turning to `Cc1ccc(S(=O)(=O)N[C@@H](Cc2ccccc2)C(=O)CCl)cc1` [N-p-tosyl-L-phenylalanine chloromethyl ketone], the “inhibition of RHBDL4 proteolytic activity” value on recombinant human RHBDL4 [1] is given as “weak inhibition at all concentrations tested”. For `CC(=O)N[C@H](C(=O)N[C@@H](CCCNC(=N)N)C(=O)NC(Cc1c[nH]cn1)C(=O)N[C@@H](C)C(=O)C(=O)N[C@H](COCc1ccccc1)Cc1ccccc1)C(C)C` (stereo partly shown) [compound 1a], the “competition with TAMRA-FP probe (fluorescent signal)” value in assay [4] is on record as “significant reduction of fluorescent signal”. Take `CC(=O)N[C@H](C(=O)N[C@@H](CCCNC(=N)N)C(=O)NC(Cc1c[nH]cn1)C(=O)N[C@@H](C)C(=O)C(=O)N[C@H](COCc1ccccc1)Cc1ccccc1)C(C)C` (stereo partly shown) [compound 1b]: the “competition with TAMRA-FP probe (fluorescent signal)” value in assay [4] is listed as “significant reduction of fluorescent signal”. On to `Cl.NCCc1ccc(S(=O)(=O)F)cc1` [4-(2-aminoethyl) benzenesulfonyl fluoride hydrochloride], for which the “inhibition of RHBDL4 proteolytic activity” value on recombinant human RHBDL4 [1] is listed as “weak inhibition at all concentrations tested”. Consider “mca-FVTKGK(dnp) [IQ41, fluorescent internally quenched substrate mca-FVTKGK(dnp)]”, for which the “cleavage by inactive RHBDL4-S144A (increase in fluorescence / activity)” value in the assay on RHBDL4-S144A is “negligible increase in fluorescence”. Also, the kcat at recombinant human RHBDL4 [2] (37 °C, pH 8.0) was 0.000669 ± 0.00017 s⁻¹. For the same molecule, the kcat at recombinant human RHBDL4 [2] (setting [5]) is 0.000669 ± 0.00017 s⁻¹. At recombinant human RHBDL4 [2], the “pH of highest RHBDL4 protease activity” value is reported as 7 and the “salt concentration range with satisfactory activity” value fell in the range of 100 to 300 mM. As to Ac-PGFSA-{α‑ketoamide CONH‑(CH2)4‑Ph} [compound 2 (IQ6-derived peptidyl α-ketoamide, Ac-PGFSA-CONH-(CH2)4-Ph)], the IC50 of inhibition of RHBDL4 activity (in vitro FRET-based activity assay) in assay [3] worked out at 3.4 µM.

Values taken from PMC11929074, “An in vitro platform for the enzymatic characterization of the rhomboid protease RHBDL4” (The Journal of Biological Chemistry, 2025).
